Test systems include HOP-62 NSCLC; TK-10 renal; LOX IMVI melanoma; MCF7 breast; COLO 205 colon; SK-MEL-5 melanoma; OVCAR-5 ovarian; NCI-H23 lung; HCC-2998 colon; MDA-N; HL-60(TB) leukemia; SW-620 colon; OVCAR-8 ovarian; A549 NSCLC; ACHN renal; HCT-116 colon; SR leukemia.
Assay in all cases: NCI tumour cell line growth inhibition, 48 h

Our source for the TGI values is PubChem BioAssay (NCI).

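Interpolation was linear, between the two tested concentrations surrounding the appropriate level; five concentrations were tested over 48 hours in 96-well plates. At the TGI there is no net growth.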

For the compound `CC(C)C(=O)Cc1ccc2ccccc2n1`, the TGI in the experiment on HOP-62 NSCLC, in the experiment with TK-10 renal, with LOX IMVI melanoma, in the experiment with MCF7 breast, in the experiment with COLO 205 colon and in the experiment on SK-MEL-5 melanoma was greater than 100 µM each time. The TGI with OVCAR-5 ovarian, with NCI-H23 lung, in the experiment on HCC-2998 colon, in the experiment on MDA-N, in the experiment on HL-60(TB) leukemia and in the experiment on SW-620 colon was greater than 100 µM each time. The TGI in the experiment with OVCAR-8 ovarian, in the experiment with A549 NSCLC, with ACHN renal and with HCT-116 colon was greater than 100 µM each time.

In the case of `C=CCN(c1cc(O)c2c(c(C)cn2S(=O)(=O)c2ccccc2)c1[N+](=O)[O-])S(C)(=O)=O`, the TGI with HOP-62 NSCLC, in the experiment on TK-10 renal, with LOX IMVI melanoma, with MCF7 breast, in the experiment on COLO 205 colon and in the experiment with SK-MEL-5 melanoma was greater than 100 µM throughout. Besides, the TGI in the experiment on OVCAR-5 ovarian, with NCI-H23 lung, in the experiment with HCC-2998 colon, in the experiment on MDA-N, with HL-60(TB) leukemia and in the experiment with SW-620 colon was greater than 100 µM in each case. Besides, the TGI in the experiment on OVCAR-8 ovarian, in the experiment on A549 NSCLC, in the experiment with ACHN renal and in the experiment on HCT-116 colon was greater than 100 µM throughout.

Take `Clc1ccc(C(OCn2ccnc2)c2nc3ccccc3[nH]2)c(Cl)c1` (stereo unspecified): the TGI in the experiment with HOP-62 NSCLC was greater than 100 µM; in the experiment on TK-10 renal it was greater than 100 µM; in the experiment on LOX IMVI melanoma it was greater than 100 µM; in the experiment on MCF7 breast, greater than 100 µM; with COLO 205 colon it was greater than 100 µM; with SK-MEL-5 melanoma, 35.2 µM. Further, the TGI in the experiment with OVCAR-5 ovarian, in the experiment on NCI-H23 lung, with HCC-2998 colon, with MDA-N, in the experiment with HL-60(TB) leukemia and in the experiment with SW-620 colon was greater than 100 µM throughout. The TGI in the experiment with OVCAR-8 ovarian, in the experiment on A549 NSCLC, in the experiment with ACHN renal and with HCT-116 colon was greater than 100 µM in each case.

For the compound `CO/C(N)=C(\C#N)N=Cc1ccsc1`, the TGI is greater than 100 µM in the experiment on HOP-62 NSCLC; greater than 100 µM in the experiment on TK-10 renal; 36.7 µM with LOX IMVI melanoma; greater than 100 µM with MCF7 breast; greater than 100 µM in the experiment on COLO 205 colon; greater than 100 µM with SK-MEL-5 melanoma. Further, the TGI was greater than 100 µM in the experiment with OVCAR-5 ovarian; greater than 100 µM in the experiment with NCI-H23 lung; greater than 100 µM in the experiment with HCC-2998 colon; greater than 100 µM in the experiment with MDA-N; 45.9 µM with HL-60(TB) leukemia; greater than 100 µM in the experiment with SW-620 colon. Further, the TGI in the experiment with OVCAR-8 ovarian, in the experiment with A549 NSCLC, in the experiment on ACHN renal and with HCT-116 colon was greater than 100 µM each time.

With `c1ccc(C(NC2=NCCO2)C2CC2)cc1` (stereo unspecified), the TGI with HOP-62 NSCLC, in the experiment with TK-10 renal, in the experiment on LOX IMVI melanoma, with MCF7 breast, in the experiment with COLO 205 colon and with SK-MEL-5 melanoma was greater than 100 µM in each case. In addition, the TGI in the experiment with OVCAR-5 ovarian, in the experiment on SR leukemia, in the experiment on NCI-H23 lung, in the experiment with HCC-2998 colon, in the experiment with MDA-N and in the experiment with SW-620 colon was greater than 100 µM in each case. Besides, the TGI in the experiment with OVCAR-8 ovarian, with A549 NSCLC, with ACHN renal and in the experiment on HCT-116 colon was greater than 100 µM each time.

As to `Cc1cccc(C)c1NC(=O)C(=O)CC(=O)c1sc(Nc2c(C)cccc2C)nc1C`, the TGI in the experiment with HOP-62 NSCLC, with TK-10 renal, in the experiment with LOX IMVI melanoma, with MCF7 breast, in the experiment with COLO 205 colon and with OVCAR-5 ovarian was greater than 100 µM in each case. In addition, the TGI with NCI-H23 lung, in the experiment on HCC-2998 colon, in the experiment on MDA-N, in the experiment on HL-60(TB) leukemia, with SW-620 colon and with OVCAR-8 ovarian was greater than 100 µM in each case. Moreover, the TGI in the experiment on A549 NSCLC, with ACHN renal and with HCT-116 colon was greater than 100 µM in each case.

For the compound `O=c1c2sc3ccccc3sc=2c(=O)c2c(Cl)c(Cl)c(Cl)c(Cl)c12`, the TGI in the experiment on HOP-62 NSCLC, in the experiment on TK-10 renal, with MCF7 breast, in the experiment on COLO 205 colon, in the experiment with SK-MEL-5 melanoma and in the experiment on OVCAR-5 ovarian was greater than 100 µM throughout. Besides, the TGI in the experiment with SR leukemia, in the experiment with NCI-H23 lung, with HCC-2998 colon, in the experiment with MDA-N, in the experiment with SW-620 colon and in the experiment on OVCAR-8 ovarian was greater than 100 µM throughout. The TGI in the experiment with A549 NSCLC, in the experiment with ACHN renal and with HCT-116 colon was greater than 100 µM each time.

Regarding `CCOc1ccc(NC(=O)C(=O)C(/C(=N/N)C(=O)OC)c2nc3ccc([N+](=O)[O-])cc3[nH]c2=O)cc1` (stereo unspecified), the TGI in the experiment on HOP-62 NSCLC, in the experiment on TK-10 renal, in the experiment with LOX IMVI melanoma, in the experiment on MCF7 breast, in the experiment on COLO 205 colon and in the experiment on SK-MEL-5 melanoma was greater than 100 µM throughout. Also, the TGI in the experiment on OVCAR-5 ovarian, with SR leukemia, with NCI-H23 lung, in the experiment on HCC-2998 colon, in the experiment with MDA-N and in the experiment on SW-620 colon was greater than 100 µM in each case. For the same compound, the TGI in the experiment with OVCAR-8 ovarian, in the experiment on A549 NSCLC, in the experiment on ACHN renal and in the experiment with HCT-116 colon was greater than 100 µM each time.

For the compound `COC(=O)[C@@H]1Cc2ccc(OC)c(c2)OCCC(=O)N1`, the TGI with HOP-62 NSCLC, with TK-10 renal, with MCF7 breast, in the experiment on COLO 205 colon, with SK-MEL-5 melanoma and in the experiment with OVCAR-5 ovarian was greater than 100 µM each time. Moreover, the TGI with SR leukemia, in the experiment on NCI-H23 lung, in the experiment on HCC-2998 colon, in the experiment with MDA-N, with SW-620 colon and with OVCAR-8 ovarian was greater than 100 µM in each case. Moreover, the TGI in the experiment on A549 NSCLC, in the experiment with ACHN renal and in the experiment on HCT-116 colon was greater than 100 µM in each case.
